Assay results taken from US20250282895A1, “PHARMACEUTICAL COMPOSITIONS OF CHEMOTHERAPEUTIC AGENTS BASED ON BETA-S[…]-AMINO ACID DERIVATIVES” (priority 2021, published 2025).
Where a name gives a salt, the structure may show the parent alone.

Test: Comparative stability, Formulation 4 (based on Treanda, mannitol)
Format: physicochemical
Protocol: The stability of Compound (1c) either as the HCl salt or as the free base was compared to the stability of melphalan HCl and/or bendamustine HCl in various pharmaceutical formulations and at different concentrations and at temperatures of 0° C. or 25° C.
The stability of the compounds in the pharmaceutical formulations was determined at concentrations within the range from 0.4 mg/mL to 0.5 mg/mL, from 0.9 mg/mL to 1.1 mg/mL, and from 1.8 mg/mL to 2.1 mg/mL.
The amount of the active pharmaceutical ingredient (API) (Compound (1c), melphalan or bendamustine) in the pharmaceutical formulations at different times during storage was determined using HPLC/UV as described in detail for Example 4 and Example 5.
Treanda® is an injectable formulation of bendamustine hydrochloride, 1H-benzimidazole-2-butanoic acid, 5-[bis(2-chloroethyl)amino]-1-methyl-, 4-(5-(bis(2-chloroethyl)amino)-1-methyl-1H-benzo[d]imidazol-2-yl) butanoic acid monohydrochloride approved by the FDA. Treanda® for injection is provided in a vial containing either 25 or 100 mg of bendamustine HCl as a white to off-white lyophilized powder. Each vial contains either 25 mg or 100 mg of bendamustine hydrochloride and 42.5 mg or 170 mg of mannitol, USP, which is reconstituted in either 0.9% sodium chloride injection, USP, or 2.5% dextrose/0.45% sodium chloride solution injection, USP to a final concentration of 0.2 mg/mL-0.6 mg/mL and adjusted to a pH from 2.5 to 3.5.
A series of 12 mL glass vials each containing 12.5 mg (0.0317 mmol) of bendamustine mono-hydrochloride salt (C16H21C12N3O2·HCl, 394.72 g/mol; MedKoo, 200470) (corresponding to 11.3 mg of bendamustine as the free base) were prepared through weighing out the commercial compound into the vials. To each of the vials either containing bendamustine mono-hydrochloride salt was added 21.3 mg (0.117 mmol) of D-mannitol (C6H14O6, MW 182.17 g/mol; SigmaAldrich, M1902). The mixtures were dissolved in 2.0 mL of double distilled water (dd-H2O) (Arrowhead), the clear colorless solutions were frozen at −78° C. (dry ice/acetone bath), and the solvents were lyophilized off at about 100 mTorr within about 16 h to afford colorless solids.
A stock solution was prepared by dissolving 85.0 mg (0.255 mmol) of Compound (1c) (free base) and 170.4 mg of D-mannitol (0.935 mmol) (C6H14O6, MW 182.17 g/mol; SigmaAldrich, M1902), and 0.503 mL of 0.5072 M aq. HCl (0.255 mmol, 1.0 eq.) (Fluka, 318957) in about 16.0 mL of a mixture of acetonitrile/water (1:1, v/v) with vortexing in clean graduated glass cylinder (25 mL) to afford a stock solution of Compound (1c) as a mono-HCl salt of a concentration of 5.313 mg/mL and a D-mannitol concentration of 10.65 mg/mL. This solution was filtered through a 0.22 μm PTFE syringe filter into a clean 25 mL Erlenmeyer flask. Aliquots of 2.0 mL (2× 1.0 mL; 2× 5.313 mg) of this stock solution were rapidly pipetted into clean 12 mL scintillation vials. The aliquots were frozen at −78° C. (dry ice/acetone bath) and lyophilized at about 100 mTorr for about 16 hours to provide test vials each containing 11.8 mg (0.0319 mmol) of Compound (1c) mono-hydrochloride salt (mono-HCl salt) (corresponding to 10.6 mg of Compound (1c) as a free base) and 21.3 mg (0.117 mmol) of D-mannitol as a colorless powdery solid.
The materials in the vials were dissolved 2.5 mL of double-distilled water (dd-H2O) (Arrowhead) to provide clear colorless, non-viscous stock solutions of a concentration of 4.24 mg/mL of Compound (1c) as the monohydrochloride salt or 4.54 mg/mL of bendamustine as the mono-hydrochloride salt, respectively.
1.0 mL of the stock solution containing 4.24 mg/mL of Compound (1c) as the monohydrochloride salt was diluted with 9.0 mL of 0.9% saline to afford 10.0 mL of a test solution of a concentration of 0.424 mg/mL of Compound (1c) as the monohydrochloride salt and with a pH of about 4. […]

Cc1ccc(N(CCCl)CCCl)cc1C[C@H](N)CC(=O)O [Compound (1c)•HCl, (S)-3-amino-4-(5-(bis(2-chloroethyl)amino)-2-methylphenyl) butanoic acid mono hydrochloride salt]
% API (Formulation 4, 0° C., 0.5 hours, 0.4-0.5 mg/mL, pH 4-5 (bendamustine), pH 4 (Compound (1c)•HCl)): 92% | % API (Formulation 4, 0° C., 0.5 hours, 0.9-1.1 mg/mL, pH 4): 92% | % API (Formulation 4, 0° C., 0.5 hours, 1.8-2.1 mg/mL, pH 4): 93% | % API (Formulation 4, 0° C., 2.0 hours, 0.4-0.5 mg/mL, pH 4-5 (bendamustine), pH 4 (Compound (1c)•HCl)): 78% | % API (Formulation 4, 0° C., 2.0 hours, 0.9-1.1 mg/mL, pH 4): 73% | % API (Formulation 4, 0° C., 2.0 hours, 1.8-2.1 mg/mL, pH 4): 80% | % API (Formulation 4, 25° C., 0.5 hours, 0.4-0.5 mg/mL, pH 4-5 (bendamustine), pH 4 (Compound (1c)•HCl)): 95% | % API (Formulation 4, 25° C., 0.5 hours, 0.9-1.1 mg/mL, pH 4-5 (bendamustine), pH 4 (Compound (1c)•HCl)): 95% | % API (Formulation 4, 25° C., 0.5 hours, 1.8-2.1 mg/mL, pH 4-5 (bendamustine), pH 4 (Compound (1c)•HCl)): 92% | % API (Formulation 4, 25° C., 2.0 hours, 0.4-0.5 mg/mL, pH 4-5 (bendamustine), pH 4 (Compound (1c)•HCl)): 81% | % API (Formulation 4, 25° C., 2.0 hours, 0.9-1.1 mg/mL, pH 4-5 (bendamustine), pH 4 (Compound (1c)•HCl)): 81% | % API (Formulation 4, 25° C., 2.0 hours, 1.8-2.1 mg/mL, pH 4-5 (bendamustine), pH 4 (Compound (1c)•HCl)): 75%
